Active and inactive are the calls of the source. The calls are words filed in the database; no cut-off is given here.
What was measured:
[1] = Binding affinity to STAT3 K591A mutant (unknown origin) expressed in Escherichia coli by CM5 sensor chip immobilization based SPR assay; set-up: species or system Homo sapiens
MDA-MB-468 [2] = assay: Antiproliferative activity against human MDA-MB-468 cells harboring active STAT3 assessed as reduction in cell growth incubated for 24 hrs by CCK8 assay; type: functional, cell-based; conditions: MDA-MB-468, 24 h
MDA-MB-231 = assay: Antiproliferative activity against human MDA-MB-231 cells harboring active STAT3 assessed as reduction in cell growth incubated for 24 hrs by CCK8 assay; type: functional, cell-based; conditions: MDA-MB-231, 24 h
DU-145 = assay: Antiproliferative activity against human DU-145 cells harboring active STAT3 assessed as reduction in cell growth incubated for 24 hrs by CCK8 assay; type: functional, cell-based; conditions: DU-145, 24 h
MCF7 = assay: Antiproliferative activity against human MCF7 cells assessed as reduction in cell growth incubated for 24 hrs by CCK8 assay; type: functional, cell-based; conditions: MCF7, 24 h
[3] = biological target: T1, Signal transducer and activator of transcription 3 (Homo sapiens, UniProt P40763); assay: Binding affinity to STAT3 (unknown origin) expressed in Escherichia coli by CM5 sensor chip immobilization based SPR assay
[4] = Binding affinity to STAT3 R595G mutant (unknown origin) expressed in Escherichia coli by CM5 sensor chip immobilization based SPR assay; set-up: species or system Homo sapiens
[5] = Binding affinity to STAT3 C712G mutant (unknown origin) expressed in Escherichia coli by CM5 sensor chip immobilization based SPR assay; set-up: species or system Homo sapiens
[6] = Binding affinity to STAT3 K591A/S611G mutant (unknown origin) expressed in Escherichia coli by CM5 sensor chip immobilization based SPR assay; set-up: species or system Homo sapiens
[7] = Binding affinity to STAT3 I643S/Q635G mutant (unknown origin) expressed in Escherichia coli by CM5 sensor chip immobilization based SPR assay; set-up: species or system Homo sapiens
[8] = biological target: T1, Signal transducer and activator of transcription 3; assay: Inhibition of STAT3-dependent transcriptional activity in human HeLa cells transfected with p-Luc-TKS3 assessed as reduction in luciferase expression incubated for 24 hrs by dual luciferase reporter gene assay; type: cell-based
[9] = biological target: T1, Signal transducer and activator of transcription 3; assay: Inhibition of STAT3 in human MDA-MB-468 cells assessed as reduction in STAT3 Y705 residue phosphorylation incubated for 24 hrs by Western blot analysis; type: cell-based; conditions: dose 1-30 µM
MDA-MB-468 [10] = assay: Effect on STAT3 expression in human MDA-MB-468 cells at 1 to 30 uM incubated for 24 hrs by Western blot analysis; type: functional, cell-based; conditions: dose 1-30 µM
[11] = biological target: T2, Signal transducer and activator of transcription 1-alpha/beta (Homo sapiens) (UniProt P42224); assay: Inhibition of STAT1 in human MDA-MB-468 cells assessed as reduction in STAT1 phosphorylation at 1 to 30 uM incubated for 24 hrs by Western blot analysis; type: cell-based; conditions: dose 1-30 µM
T2 sequence (whole entry): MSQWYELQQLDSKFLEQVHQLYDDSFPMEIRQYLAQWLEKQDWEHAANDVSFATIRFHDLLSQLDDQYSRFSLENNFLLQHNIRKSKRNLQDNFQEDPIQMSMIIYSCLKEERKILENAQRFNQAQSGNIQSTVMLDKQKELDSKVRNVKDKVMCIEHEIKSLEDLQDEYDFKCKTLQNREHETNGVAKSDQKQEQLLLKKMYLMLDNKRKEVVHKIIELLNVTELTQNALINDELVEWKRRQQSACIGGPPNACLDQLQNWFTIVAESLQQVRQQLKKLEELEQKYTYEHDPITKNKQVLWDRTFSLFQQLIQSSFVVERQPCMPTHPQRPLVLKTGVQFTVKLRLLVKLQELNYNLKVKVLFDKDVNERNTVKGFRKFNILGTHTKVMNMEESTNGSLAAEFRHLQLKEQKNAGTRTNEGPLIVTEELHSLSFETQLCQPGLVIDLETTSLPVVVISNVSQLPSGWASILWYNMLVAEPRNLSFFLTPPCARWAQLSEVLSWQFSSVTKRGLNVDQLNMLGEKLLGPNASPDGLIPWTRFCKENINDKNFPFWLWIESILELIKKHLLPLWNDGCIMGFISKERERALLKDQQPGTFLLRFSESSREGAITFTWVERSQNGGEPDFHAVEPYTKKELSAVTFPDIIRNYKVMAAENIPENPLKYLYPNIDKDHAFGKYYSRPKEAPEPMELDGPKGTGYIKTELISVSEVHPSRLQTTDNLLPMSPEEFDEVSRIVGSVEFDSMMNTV

[12] = biological target: T3, Signal transducer and activator of transcription 5A (Homo sapiens) (UniProt P42229); assay: Inhibition of STAT5 in human MDA-MB-468 cells assessed as reduction in STAT5 phosphorylation at 1 to 30 uM incubated for 24 hrs by Western blot analysis; type: cell-based; conditions: dose 1-30 µM
T3 sequence (whole entry): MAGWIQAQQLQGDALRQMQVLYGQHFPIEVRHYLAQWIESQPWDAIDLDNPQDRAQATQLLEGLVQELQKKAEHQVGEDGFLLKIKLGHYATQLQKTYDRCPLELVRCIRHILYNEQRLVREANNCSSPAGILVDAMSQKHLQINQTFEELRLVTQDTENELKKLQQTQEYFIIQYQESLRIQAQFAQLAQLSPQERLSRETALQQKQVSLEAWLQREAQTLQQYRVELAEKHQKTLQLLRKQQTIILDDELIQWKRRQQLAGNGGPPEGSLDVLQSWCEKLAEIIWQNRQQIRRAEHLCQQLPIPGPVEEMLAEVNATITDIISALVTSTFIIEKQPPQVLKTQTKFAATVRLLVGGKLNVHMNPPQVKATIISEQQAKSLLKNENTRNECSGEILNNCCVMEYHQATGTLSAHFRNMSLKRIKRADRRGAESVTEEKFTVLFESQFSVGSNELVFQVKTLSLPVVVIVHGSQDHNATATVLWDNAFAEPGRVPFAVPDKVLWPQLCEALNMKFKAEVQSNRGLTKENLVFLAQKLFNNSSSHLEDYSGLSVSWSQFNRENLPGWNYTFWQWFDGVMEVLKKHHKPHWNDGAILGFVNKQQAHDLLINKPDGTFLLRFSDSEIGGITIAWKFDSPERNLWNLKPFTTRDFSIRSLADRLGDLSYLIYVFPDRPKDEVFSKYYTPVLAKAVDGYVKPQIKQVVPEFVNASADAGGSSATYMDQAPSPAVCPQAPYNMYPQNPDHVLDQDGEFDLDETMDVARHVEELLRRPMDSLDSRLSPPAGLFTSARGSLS

[13] = biological target: T1, Signal transducer and activator of transcription 3; assay: Inhibition of STAT3 in human MDA-MB-468 cells assessed as reduction in Bcl-XL expression at 1 to 30 uM incubated for 24 hrs by Western blot analysis; type: cell-based; conditions: dose 1-30 µM
MDA-MB-468 [14] = assay: Antimigratory activity against human MDA-MB-468 cells assessed as reduction in cell migration incubated for 24 hrs by transwell study based analysis; type: functional; conditions: dose 10-30 µM
[15] = biological target: T1, Signal transducer and activator of transcription 3; assay: Displacement of fluorescein-labeled pYLPQTV-NH2 from STAT3 SH2 domain (unknown origin) by fluorescence polarization assay
Homo sapiens = species: Homo sapiens; assay: Selectivity ratio of Kd for STAT3 I643S/Q635G mutant (unknown origin) expressed in Escherichia coli to Kd for wild type STAT3 (unknown origin) expressed in Escherichia coli by CM5 sensor chip immobilization based SPR assay

T1 sequence (P40763 whole entry): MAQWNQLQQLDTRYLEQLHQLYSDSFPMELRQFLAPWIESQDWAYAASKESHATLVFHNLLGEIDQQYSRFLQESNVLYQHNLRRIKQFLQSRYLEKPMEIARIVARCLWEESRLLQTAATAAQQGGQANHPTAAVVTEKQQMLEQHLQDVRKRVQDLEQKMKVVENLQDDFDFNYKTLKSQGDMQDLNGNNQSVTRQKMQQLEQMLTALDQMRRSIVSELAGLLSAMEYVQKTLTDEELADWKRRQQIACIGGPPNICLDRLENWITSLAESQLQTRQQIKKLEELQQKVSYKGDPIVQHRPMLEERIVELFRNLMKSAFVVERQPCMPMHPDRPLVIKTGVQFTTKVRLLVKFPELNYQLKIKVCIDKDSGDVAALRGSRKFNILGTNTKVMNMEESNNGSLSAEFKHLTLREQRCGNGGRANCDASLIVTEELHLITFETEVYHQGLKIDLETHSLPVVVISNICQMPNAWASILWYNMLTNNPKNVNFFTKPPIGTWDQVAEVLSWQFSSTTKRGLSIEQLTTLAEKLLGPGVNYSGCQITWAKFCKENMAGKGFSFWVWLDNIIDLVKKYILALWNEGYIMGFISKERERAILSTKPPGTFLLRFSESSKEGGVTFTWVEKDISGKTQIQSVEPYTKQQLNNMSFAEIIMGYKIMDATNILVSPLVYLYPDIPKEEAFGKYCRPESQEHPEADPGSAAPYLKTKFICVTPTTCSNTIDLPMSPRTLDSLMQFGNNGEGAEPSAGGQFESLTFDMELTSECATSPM

IC50 (MDA-MB-468 [2]): 5.1 µM
IC50 (MDA-MB-231): 13.8 µM
IC50 (DU-145): 63.8 µM
IC50 (MCF7): 134 µM
Activity [3]: Dose-dependent effect
Kd [3]: 4.59 µM
IC50 [8]: 12.5 µM
inhibition [8]: Dose-dependent effect
inhibition [9]: Dose-dependent effect
inhibition [11]: Active
inhibition [12]: Active
inhibition [13]: Active
inhibition [15]: Active
Selectivity ratio (Homo sapiens): 4
Compound: O=C1c2ccccc2C(=O)c2cc(S(=O)(=O)Nc3ccc(O)cc3)ccc21
Kd [1]: 3.84 µM
Kd [4]: 6.53 µM
Kd [5]: 18.5 µM
Kd [6]: 4.8 µM
Kd [7]: 22.7 µM
Activity (MDA-MB-468 [10]): inactive
Activity (MDA-MB-468 [14]): Dose-dependent effect
